Patent US6403623B1, “Heterocyclic antituberculosis agents” (Unuversity of Notre Dame du Lac, priority 1999, dated 2002)

Tested on: M. tuberculosis H37R
Test: microbe, parasite or virus in culture
Format: cell-based
Conditions: Mycobacterium tuberculosis, in vitro, concentration of 12.5 μg/mL, read-out: inhibition of the growth of M. tuberculosis H37R

In the case of `O=C(OCc1ccccc1)[C@@H]1COC(c2ccccc2OCc2ccccc2)=N1` [Example 1, (S)-Benzyl 2-[2-(Benzyloxy)phenyl]-2-oxazoline-4-carboxylate], the inhibition at 12.5 µg/mL was 98%.
